For series [1], the system named is SK-N-AS. The conditions noted are these: human neuroblastoma cell line SK-N-AS; read-out: cytotoxicity IC50; cited from earlier work.
Series [2] has as its system bone marrow CD34-positive cells. The conditions noted are these: cited from earlier work.
The test system of series [3] is LAN1. As to conditions: human neuroblastoma cell line LAN1; read-out: cytotoxicity IC50; cited from earlier work.
Series [4] concerns MiaPaCa. The conditions noted are these: human pancreatic carcinoma MiaPaCa; read-out: cytotoxicity IC50; cited from earlier work.
Series [5] deals with WAC2. The conditions noted are these: human neuroblastoma cell line WAC2; read-out: cytotoxicity IC50; cited from earlier work.
In series [6] the test system is LAN5. The conditions noted are these: human neuroblastoma cell line LAN5; read-out: cytotoxicity IC50; cited from earlier work.

Consider two compounds from patent US8518928B2, “Therapeutic compounds” (Rutgers, The State University of New Jersey, priority 2006, dated 2013).

Structures can show the parent of a compound that is named as a salt.

Turning to `Cc1oc2nc1-c1nc(co1)-c1nc(co1)-c1nc(co1)-c1nc(co1)-c1nc(co1)C1=NC(CS1)c1nc-2c(C)o1` (stereo not shown) [Telomestatin], the IC50 is 800 nM in series [1]; 4000 nM in series [3]; 500 nM in series [4]; 3200 nM in series [5]; 2500 nM in series [6]. In series [2], the “effect on BFU-E and CFU-GM” value is recorded as “much lesser effect”.

`CC(C)C1NC(=O)c2coc(n2)-c2coc(n2)-c2coc(n2)C(CCCCN)NC(=O)c2coc(n2)-c2coc(n2)-c2coc1n2` (stereo not shown) (as salt: TFA) [Compound 15, Cyclic Lysine-Valine Amine TFA Salt]: the melting point was 297 to 300 °C.

As a reminder, the IC50 is the midpoint of a concentration-inhibition curve. What is called melting point is the temperature, or range, at which the solid turns liquid.
